Columns and labels:
[1] = Caucasian patients, intravenous infusion; cited from earlier work
[2] = Phase I dose-escalation study: safety, DLT, MTD and RD; type: in vivo, human
Protocol: (§1) A medical history was obtained from each patient, and physical examinations and routine laboratory evaluations were performed before treatment initiation and weekly thereafter, Chest and other relevant x-rays were obtained during screening and after alternate cycles of treatment. Adverse events were monitored and recorded throughout the study and were graded according to NCI-CTC, version 3.0. The tumor response was assessed for measurable target lesions according to Response Evaluation Criteria in Solid Tumors (RECIST).
(§2) Antiemetic premedication was not mandatory in the protocol.
The starting dose of Glufosfamide was 3200, which was increased to 4500 and then to 6000 in subsequent cohorts of at least three patients. The following adverse events during cycle 1 were defined as DLTs (dose-limiting toxicities): neutropenia of grade 4 (ANC of <500/uL) for >7 days; febrile neutropenia (fever of >38 degrees C. with an ANC of <1000/uL); thrombocytopenia (platelet count of <25,000/uL); nausea or vomiting of grade > (or equal to) 3 despite maximal antiemetic therapy; and any other nonhematologic toxicity of grade > (or equal to) 3 considered drug-related. If any patient experienced a DLT during the first cycle, three additional patients were treated at the same dose. Patients who experienced a DLT could continue Glufosfamide therapy at the preceding dose level. Treatment in subsequent courses was reinitiated only after hematologic recovery (ANC of > (or equal to) 1500/uL, platelet count of > (or equal to) 100,000/uL) and resolution of all other toxicities to grade < (or equal to) 1 or baseline intensity. The MTD (maximum tolerated dose) was defined as the dose at which two or more patients experienced a DLT in the first cycle. The RD (recommended dose) was defined as the dose level immediately below the MTD. In accordance with the methods of the invention, both the RD and MTD (and intermediate doses) can be administered to patients, with the RD preferred for Japanese and other patients of Asian origin and the MID preferred for other patients.

[3] = Phase I study: pharmacokinetics of Glufosfamide by 6 h intravenous infusion; details: over the dose range studied, 3200-6000 mg/m^2
Source text: Patients were ineligible if they had symptomatic brain metastasis; other nonmalignant systemic disease; an active, uncontrolled infection; preexisting nephrotoxicity of grade 3 or 4 (NCI Common Toxicity Criteria—NCI-CTC) resulting from previous therapy; or infection with HIV, HBV, or HCV. They were also ineligible if they were pregnant or nursing, or if they required steroid therapy.
This open-label, dose-escalation Phase I study was based on intravenous infusion of the drug in three cohorts of Japanese subjects with malignant solid tumors. Glufosfamide was administered intravenously over 6 h in a total volume of 1000 mL of normal saline at doses of 3200, 4500, and 6000 mg/m^2. One-quarter of the dose was administered during the first 30 min at a rate of 500 mL/h, with the remainder of the dose being administered over the subsequent 330 min at a rate of 136 mL/h. Glufosfamide was administered on day 1 once every 3 weeks. Antiemetic premedication was not mandatory in the protocol. Granulocyte colony-stimulating factor (G-CSF) was administered for febrile neutropenia, sepsis with neutropenia, or recurrent neutropenia of grade 4.
Pharmacokinetic sampling was performed for the first and second cycles.

[4] = test system: pancreatic cancer; details: pancreatic cancer patients relapsed after or not responding to gemcitabine; cited from earlier work
[5] = test system: solid tumors; test: Phase I study: tumor response by RECIST; type: in vivo, human
Protocol: as §1, §2

Row | SMILES | dose that is well tolerated [1] [mg/m^2] | patients with neutropenia of grade 4 ([2]; 4500 mg/m^2, cycle 2, without infection, short-lived, 13 patients) | patients with grade 4 anemia requiring red blood cell transfusion ([2]; 4500 mg/m^2, cycle 3) | patients with DLTs ([2]; 6000 mg/m^2, cycle 1, grade 3 metabolic acidosis, hypophosphatemia, hypokalemia) | MTD (maximum tolerated dose) ([2]; Japanese patients, 6 h iv infusion day 1 every 3 weeks, dose at which two or more patients had a DLT in cycle 1) [mg/m^2] | RD (recommended dose) ([2]; Japanese patients, 6 h iv infusion every 3 weeks, dose level immediately below MTD) [mg/m^2] | predominant nonhematologic toxicities ([2]; all dose levels, generally transient and reversible) | DLTs ([2]; two lowest doses (3200 and 4500 mg/m^2), cycle 1) | dose linearity of pharmacokinetics [3] | Phase III trial outcome [4] | anticancer activity in Phase III trial [4] | partial response ([5]; among thirteen evaluable patients, advanced gall bladder cancer, 4500 mg/m^2, after two cycles) | subjects showing stabilization of disease ([5]; among thirteen evaluable patients, colorectal (4), gastric, thymic cancer, thymoma, non-small cell lung cancer) | patients with evidence of antitumor activity ([5]; among thirteen patients evaluable for response) | duration of partial response ([5]; person, advanced gall bladder cancer, 4500 mg/m^2, two cycles)
1 | O=P(NCCCl)(NCCCl)O[C@@H]1O[C@H](CO)[C@@H](O)[C@H](O)[C@H]1O [Glufosfamide, beta-D-glucosyl-isophosphoramide mustard] | 6000 | only one patient | one patient | two of three treated patients experienced DLTs | 6000 | 4500 | fatigue, nausea, a high urinary concentration of beta 2 microglobulin, hypophosphatemia, hypokalemia, and metabolic acidosis | No DLTs occurred | linear pharmacokinetics | did not meet its endpoints | did exhibit anticancer activity in some patients | one partial response | eight subjects | nine patients | greater than five months
2 | O=P(O)(NCCCl)NCCCl [IPM, isophosphoramide mustard] | – | – | – | – | – | – | – | – | linear pharmacokinetics | – | – | – | – | – | –

— patent US20160143929A1, “ADMINISTRATION OF GL[…] THE TREATMENT OF CANCER” (Threshold Pharmaceuticals, Inc., priority 2008, published 2016)
